Data published in ChEMBL document CHEMBL3414499, “Characterization of two distinct structural classes of selective aldehyde dehydrogenase 1A1 inhibitors” (J Med Chem, 2015).
Active and inactive are the calls of the source. The rule behind the calls is not given here.

How the values were obtained:
[1] = molecular target: T1, Aldehyde dehydrogenase X, mitochondrial (Homo sapiens) (UniProt P30837); test: Effect on recombinant human ALDH1B1 using propionaldehyde as substrate at 20 uM preincubated for 2 mins with NAD+ followed by substrate addition by UV-Vis spectrophotometric analysis
T1 sequence (whole entry): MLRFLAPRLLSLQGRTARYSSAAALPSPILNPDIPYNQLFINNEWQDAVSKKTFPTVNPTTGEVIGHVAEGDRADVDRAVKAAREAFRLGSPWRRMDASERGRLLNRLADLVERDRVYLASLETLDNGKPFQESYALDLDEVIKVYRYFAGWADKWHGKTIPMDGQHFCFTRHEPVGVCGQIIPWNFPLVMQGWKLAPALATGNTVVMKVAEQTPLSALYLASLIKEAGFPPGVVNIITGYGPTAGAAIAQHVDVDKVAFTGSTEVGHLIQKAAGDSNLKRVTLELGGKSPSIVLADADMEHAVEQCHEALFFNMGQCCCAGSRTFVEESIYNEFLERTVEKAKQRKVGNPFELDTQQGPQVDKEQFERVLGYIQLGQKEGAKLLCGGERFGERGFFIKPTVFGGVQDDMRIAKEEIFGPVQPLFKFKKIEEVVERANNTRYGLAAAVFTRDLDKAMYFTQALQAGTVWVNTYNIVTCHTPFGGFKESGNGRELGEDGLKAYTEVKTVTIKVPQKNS

[2] = molecular target: T2, Retinal dehydrogenase 2 (Homo sapiens) (UniProt O94788); test: Activation of recombinant human ALDH1A2 using propionaldehyde as substrate at 100 uM preincubated for 2 mins with NAD+ followed by substrate addition by UV-Vis spectrophotometric analysis
T2 sequence (whole entry): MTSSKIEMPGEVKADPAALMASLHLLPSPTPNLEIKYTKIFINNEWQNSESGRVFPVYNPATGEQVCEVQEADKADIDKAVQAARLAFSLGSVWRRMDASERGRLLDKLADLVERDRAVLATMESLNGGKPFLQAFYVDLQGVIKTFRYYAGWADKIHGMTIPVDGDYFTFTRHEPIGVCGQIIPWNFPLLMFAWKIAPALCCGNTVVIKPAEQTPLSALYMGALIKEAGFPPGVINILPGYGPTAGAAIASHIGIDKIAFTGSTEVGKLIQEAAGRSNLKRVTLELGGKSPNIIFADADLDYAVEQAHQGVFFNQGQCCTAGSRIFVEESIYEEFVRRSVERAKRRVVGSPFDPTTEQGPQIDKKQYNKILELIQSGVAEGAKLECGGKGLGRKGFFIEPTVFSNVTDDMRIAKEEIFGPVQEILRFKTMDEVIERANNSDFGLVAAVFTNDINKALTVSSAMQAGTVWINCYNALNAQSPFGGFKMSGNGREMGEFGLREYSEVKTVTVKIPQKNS

[3] = molecular target: T1, Aldehyde dehydrogenase X, mitochondrial (Homo sapiens); test: Activation of recombinant human ALDH1B1 using propionaldehyde as substrate at 100 uM preincubated for 2 mins with NAD+ followed by substrate addition by UV-Vis spectrophotometric analysis
[4] = molecular target: T2, Retinal dehydrogenase 2 (Homo sapiens); test: Effect on recombinant human ALDH1A2 using propionaldehyde as substrate at 20 uM preincubated for 2 mins with NAD+ followed by substrate addition by UV-Vis spectrophotometric analysis
[5] = molecular target: T3, Aldehyde dehydrogenase, dimeric NADP-preferring (Homo sapiens) (UniProt P30838); test: Activation of recombinant human ALDH3A1 using benzaldehyde as substrate at 100 uM preincubated for 2 mins with NAD+ followed by substrate addition by UV-Vis spectrophotometric analysis
T3 sequence (whole entry): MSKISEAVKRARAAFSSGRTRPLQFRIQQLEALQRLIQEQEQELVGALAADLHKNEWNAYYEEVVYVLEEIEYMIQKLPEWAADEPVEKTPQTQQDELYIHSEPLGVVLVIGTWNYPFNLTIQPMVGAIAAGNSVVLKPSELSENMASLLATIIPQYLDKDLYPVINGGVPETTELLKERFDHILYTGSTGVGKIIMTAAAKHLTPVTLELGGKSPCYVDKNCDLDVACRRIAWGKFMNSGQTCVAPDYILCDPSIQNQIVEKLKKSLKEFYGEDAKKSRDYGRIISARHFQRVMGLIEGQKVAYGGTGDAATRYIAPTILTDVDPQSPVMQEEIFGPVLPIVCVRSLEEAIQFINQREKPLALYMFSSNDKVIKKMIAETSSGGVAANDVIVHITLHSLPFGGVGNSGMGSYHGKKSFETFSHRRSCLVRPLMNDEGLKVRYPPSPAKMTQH

[6] = molecular target: T2, Retinal dehydrogenase 2 (Homo sapiens); test: Inhibition of recombinant human ALDH1A2 using propionaldehyde as substrate at 100 uM preincubated for 2 mins with NAD+ followed by substrate addition by UV-Vis spectrophotometric analysis
[7] = molecular target: T4, Retinaldehyde dehydrogenase 3 (Homo sapiens) (UniProt P47895); test: Inhibition of recombinant human ALDH1A3 using propionaldehyde as substrate at 100 uM preincubated for 2 mins with NAD+ followed by substrate addition by UV-Vis spectrophotometric analysis
T4 sequence (whole entry): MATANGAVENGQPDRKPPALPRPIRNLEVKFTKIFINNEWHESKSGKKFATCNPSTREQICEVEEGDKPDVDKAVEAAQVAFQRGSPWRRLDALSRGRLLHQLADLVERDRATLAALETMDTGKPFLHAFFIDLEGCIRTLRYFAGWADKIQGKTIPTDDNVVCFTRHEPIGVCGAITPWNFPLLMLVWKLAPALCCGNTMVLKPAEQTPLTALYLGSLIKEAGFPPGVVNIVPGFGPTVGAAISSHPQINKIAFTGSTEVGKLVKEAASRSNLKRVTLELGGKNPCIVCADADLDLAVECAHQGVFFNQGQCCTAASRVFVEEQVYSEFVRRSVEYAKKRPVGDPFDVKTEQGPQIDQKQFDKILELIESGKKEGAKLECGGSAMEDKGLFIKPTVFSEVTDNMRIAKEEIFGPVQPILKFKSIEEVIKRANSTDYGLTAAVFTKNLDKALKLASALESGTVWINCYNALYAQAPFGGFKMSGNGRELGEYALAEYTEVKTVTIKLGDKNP

[8] = molecular target: T5, Retinaldehyde dehydrogenase 3 (Homo sapiens, UniProt P47895); test: Inhibition of recombinant human ALDH1A3 using propionaldehyde as substrate preincubated for 2 mins with NAD+ followed by substrate addition by UV-Vis spectrophotometric analysis
T5 sequence (P47895 whole entry): T4 sequence (whole entry)

Structure (SMILES) | Activity [5] | inhibition [6] | inhibition [7] | other results
CC(C)CCn1c(CN2CCN(C(=O)c3ccco3)CC2)nc2c1c(=O)n(C)c(=O)n2C | Active | – | – | Activity [1]: inactive; Activity [2]: Active; Activity [3]: Active; Activity [4]: inactive
Cn1c(=O)c2c(nc(CN3CCC(C(N)=O)CC3)n2CCCc2ccccc2)n(C)c1=O | – | inactive | inactive | –
Cn1c(=O)c2c(nc(SCC(N)=O)n2Cc2ccccc2F)n(C)c1=O | – | inactive | – | –
CC(C)CCn1c(CN2CCOCC2)nc2c1c(=O)n(C)c(=O)n2C | – | inactive | inactive | –
Cn1c(=O)c2c(nc(N3CCOCC3)n2Cc2ccccc2F)n(C)c1=O | – | – | – | Activity [2]: Active

Second part, led by results:

Activity [5] | inhibition [6] | inhibition [7] | Structure (SMILES) | other results
Active | – | – | CCCCn1c(CN2CCN(c3cccc(Cl)c3)CC2)nc2c1c(=O)n(C)c(=O)n2C | IC50 [8]: > 20 µM
Active | – | – | Cn1c(=O)c2c(nc(N3CCN(Cc4ccccc4)CC3)n2Cc2cccc(Cl)c2)n(C)c1=O | Activity [3]: Active
– | inactive | – | CCCCn1c(CN2CCN(c3ccc(OC)cc3)CC2)nc2c1c(=O)n(C)c(=O)n2C | IC50 [8]: > 100 µM
– | inactive | inactive | CCN1CCN(Cc2nc3c(c(=O)n(C)c(=O)n3C)n2CC(=O)c2ccccc2)CC1 | –
